{"source": "patent US11312763B2", "about": "“Anti-N3pGlu amyloid beta peptide antibodies and uses thereof” (Eli Lilly and Company, priority 2016, dated 2022)", "system": "deposited Aβ", "test": "Prior 4-month study of BACE inhibitor in feed in aged PDAPP mice", "assay_type": "in vivo"}
{"smiles": "C[C@@]1(c2cc(-c3cncnc3)c(F)cc2F)CCSC(N)=N1", "note": "[LY2811376]", "values": [{"measurement": "change in the deposited Aβ over the 4-month interval", "value": "no change in the deposited Aβ"}]}
